Results: patent US20020052295A1, “Diacyl derivatives of propylene diamine having herbicidal activity” (priority 1999, published 2002)

What was measured:
[1] = system: SORHA; test: Post-emergence herbicidal activity on SORHA (johnsongrass, seedling); type: in vivo, Sorghum halepense; details: post-emergence spray; lowest tested rate with 80% or greater inhibition; about 14 days after treatment
Outline: (§1)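 Post-emergence spray, 50:50 acetone:water, 3,100 l/ha, […]; plants 9–14 days after planting. Greenhouse 30/21° C day/night. Read ~14 days post-treatment: % inhibition vs unsprayed controls.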

[2] = system: AMARE; test: Pre-emergence herbicidal activity on AMARE (redroot pigweed); type: in vivo, Amaranthus retroflexus
Outline: (§2)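 In this greenhouse test, compound in acetone/water (50:50) was put on the soil surface directly after seeds were sown and covered. Plants received overhead irrigation and were held at 30/21 °C day/night. About 14 days on, inhibition relative to untreated controls gave GR80.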

[3] = system: SORVU; test: Pre-emergence herbicidal activity on SORVU (shattercane); type: in vivo, Sorghum vulgare
Outline: as §2

[4] = system: POROL; test: Pre-emergence herbicidal activity on POROL (common purslane); type: in vivo, Portulaca oleracea
Outline: as §2

[5] = system: ABUTH; test: Post-emergence herbicidal activity on ABUTH (velvetleaf); type: in vivo, Abutilon theophrasti; details: post-emergence spray; lowest tested rate with 80% or greater inhibition; about 14 days after treatment
Outline: as §1

[6] = system: CHEAL; test: Post-emergence herbicidal activity on CHEAL (common lambsquarters); type: in vivo, Chenopodium album; details: post-emergence spray; lowest tested rate with 80% or greater inhibition; about 14 days after treatment
Outline: as §1

[7] = system: BRAPP; test: Pre-emergence herbicidal activity on BRAPP (broadleaf signalgrass); type: in vivo, Brachiaria platyphylla
Outline: as §2

[8] = system: ABUTH; test: Pre-emergence herbicidal activity on ABUTH (velvetleaf); type: in vivo, Abutilon theophrasti
Outline: as §2

[9] = system: POROL; test: Post-emergence herbicidal activity on POROL (common purslane; table head prints PORAL); type: in vivo, Portulaca oleracea; details: post-emergence spray; lowest tested rate with 80% or greater inhibition; about 14 days after treatment
Outline: as §1

[10] = system: SORHA; test: Pre-emergence herbicidal activity on SORHA (johnsongrass, seedling); type: in vivo, Sorghum halepense
Outline: as §2

[11] = system: dicotyledonous species; test: Pre-emergence test (later test), average GR80 on dicotyledonous species; type: in vivo; details: average over dicotyledonous species
Excerpt: (§3) All such uses, and the biological activity enabling such uses, are embraced by the term “herbicidal” herein. Tables 15 and 16 summarize results of tests conducted as described below to determine the pre-emergence herbicidal activity, in the form of a GR80 value, of illustrative compounds of this invention. […] Where herbicidal activity was evident but 80% inhibition was not achieved at the highest rate tested (typically 1000 g/ha), an asterisk (*) is shown in the following tables. Herbicidal activity evident in the form of symptoms of phytotoxicity, in the absence of at least 80% inhibition at any rate, is indicated in the tables by “phyto”. A blank cell in the following tables indicates no herbicidal or phytotoxic response at any rate tested.
(§4) The pre-emergence tests were conducted by the following procedure. Topsoil was sieved to pass through a 1.27 cm screen. Fertilizer was added to the topsoil and the mixture was then sterilized by heating. The topsoil mixture was placed in a pot and compacted to a depth of 1.0 to 1.25 cm from the top of the pot. Seeds of each of several monocotyledonous and dicotyledonous annual plant species were placed on top of the soil. […]
(§5) Approximately 14 days after planting and treating, the plants were observed and herbicidal efficacy recorded as percent inhibition by comparison with untreated plants. […]

[12] = system: PANMI; test: Post-emergence herbicidal activity on PANMI (wild proso millet); type: in vivo, Panicum miliaceum; details: post-emergence spray; lowest tested rate with 80% or greater inhibition; about 14 days after treatment
[13] = system: SOLNI; test: Post-emergence herbicidal activity on SOLNI (black nightshade); type: in vivo, Solanum nigrum; details: post-emergence spray; lowest tested rate with 80% or greater inhibition; about 14 days after treatment
Outline: as §1

[14] = system: SOLNI; test: Pre-emergence herbicidal activity on SOLNI (black nightshade); type: in vivo, Solanum nigrum
Outline: as §2

[15] = system: ECHCG; test: Post-emergence herbicidal activity on ECHCG (barnyardgrass); type: in vivo, Echinochloa crus-galli; details: post-emergence spray; lowest tested rate with 80% or greater inhibition; about 14 days after treatment
Outline: as §1

[16] = system: BRAPP; test: Post-emergence herbicidal activity on BRAPP (broadleaf signalgrass); type: in vivo, Brachiaria platyphylla; details: post-emergence spray; lowest tested rate with 80% or greater inhibition; about 14 days after treatment
Outline: as §1

[17] = system: SORVU; test: Post-emergence herbicidal activity on SORVU (shattercane); type: in vivo, Sorghum vulgare; details: post-emergence spray; lowest tested rate with 80% or greater inhibition; about 14 days after treatment
Outline: as §1

[18] = system: monocotyledonous species; test: Pre-emergence test (later test), GR80 on monocotyledonous species; type: in vivo; details: average over monocotyledonous species
Excerpt: as §3, §4, §5

[19] = system: CONAR; test: Pre-emergence herbicidal activity on CONAR (field bindweed); type: in vivo, Convolvulus arvensis
Outline: as §2

[20] = system: AMARE; test: Post-emergence herbicidal activity on AMARE (redroot pigweed); type: in vivo, Amaranthus retroflexus; details: post-emergence spray; lowest tested rate with 80% or greater inhibition; about 14 days after treatment
Outline: as §1

[21] = system: DATST; test: Pre-emergence herbicidal activity on DATST (jimsonweed); type: in vivo, Datura stramonium
Outline: as §2

[22] = system: CHEAL; test: Pre-emergence herbicidal activity on CHEAL (common lambsquarters); type: in vivo, Chenopodium album
Outline: as §2

[23] = system: PANDI; test: Post-emergence herbicidal activity on PANDI (fall panicum); type: in vivo, Panicum dichotomiflorum; details: post-emergence spray; lowest tested rate with 80% or greater inhibition; about 14 days after treatment
Outline: as §1

[24] = system: PANDI; test: Pre-emergence herbicidal activity on PANDI (fall panicum); type: in vivo, Panicum dichotomiflorum
Outline: as §2

[25] = system: CIRAR; test: Pre-emergence herbicidal activity on CIRAR (canada thistle, seedling); type: in vivo, Cirsium arvense
Outline: as §2

[26] = system: SETFA; test: Post-emergence herbicidal activity on SETFA (giant foxtail); type: in vivo, Setaria faberi; details: post-emergence spray; lowest tested rate with 80% or greater inhibition; about 14 days after treatment
Outline: as §1

[27] = system: SETFA; test: Pre-emergence herbicidal activity on SETFA (giant foxtail); type: in vivo, Setaria faberi
Outline: as §2

[28] = system: ECHCG; test: Pre-emergence herbicidal activity on ECHCG (barnyardgrass); type: in vivo, Echinochloa crus-galli
Outline: as §2

[29] = system: CONAR; test: Post-emergence herbicidal activity on CONAR (field bindweed); type: in vivo, Convolvulus arvensis; details: post-emergence spray; lowest tested rate with 80% or greater inhibition; about 14 days after treatment
Outline: as §1

[30] = system: PANMI; test: Pre-emergence herbicidal activity on PANMI (wild proso millet); type: in vivo, Panicum miliaceum
Outline: as §2

[31] = system: DIGSA; test: Pre-emergence herbicidal activity on DIGSA (large crabgrass); type: in vivo, Digitaria sanguinalis
Outline: as §2

[32] = system: DATST; test: Post-emergence herbicidal activity on DATST (jimsonweed); type: in vivo, Datura stramonium; details: post-emergence spray; lowest tested rate with 80% or greater inhibition; about 14 days after treatment
Outline: as §1

[33] = system: DIGSA; test: Post-emergence herbicidal activity on DIGSA (large crabgrass); type: in vivo, Digitaria sanguinalis; details: post-emergence spray; lowest tested rate with 80% or greater inhibition; about 14 days after treatment
[34] = lowest tested rate giving 80% or greater inhibition, approx. 14 days after planting and treating, greenhouse
[35] = racemic mixture vs enantiomers test, rates tested 1000, 650, 300, 200, 100, 65, 30 and 10 g/ha, lowest rate with 80% or greater inhibition

## CC(CNC(=O)c1cccc(C(F)(F)F)c1)NC(=O)c1cccc(C(F)(F)F)c1 (stereo not shown) [Example 5, N,N′-(1,2-propanediylbis)-3-(trifluoromethyl)benzamide]
[1]
  Post-emergence activity (GR80) SORHA: [empty]
[2]; [34]
  Pre-emergence activity (GR80) on AMARE: 125 g/ha
[2]; [35]
  Pre-emergence activity (GR80) AMARE: 65 g/ha
[3]; [34]
  Pre-emergence activity (GR80) on SORVU: phyto
[3]; [35]
  Pre-emergence activity (GR80) SORVU: phyto
[4]; [34]
  Pre-emergence activity (GR80) on PORAL: 250 g/ha
[4]; [35]
  Pre-emergence activity (GR80) PORAL: 650 g/ha
[5]
  Post-emergence activity (GR80) ABUTH: 1000 g/ha
[6]
  Post-emergence activity (GR80) CHEAL: 500 g/ha
[7]; [34]
  Pre-emergence activity (GR80) on BRAPP: * (Where herbicidal activity was evident but 80% inhibition was not achieved at the highest rate tested (typically 1000 g/ha), an asterisk (*) is shown)
[7]; [35]
  Pre-emergence activity (GR80) BRAPP: phyto
[8]; [34]
  Pre-emergence activity (GR80) on ABUTH: 1000 g/ha
[8]; [35]
  Pre-emergence activity (GR80) ABUTH: * (Where herbicidal activity was evident but 80% inhibition was not achieved at the highest rate tested (typically 1000 g/ha), an asterisk (*) is shown)
[9]
  Post-emergence activity (GR80) PORAL: 750 g/ha
[10]; [34]
  Pre-emergence activity (GR80) on SORHA: phyto
[10]; [35]
  Pre-emergence activity (GR80) SORHA: phyto
[11]
  average pre-emergence GR80 on dicotyledonous species: 535 g/ha
[12]
  Post-emergence activity (GR80) PANMI: [empty]
[13]
  Post-emergence activity (GR80) SOLNI: 1000 g/ha
[14]; [34]
  Pre-emergence activity (GR80) on SOLNI: 750 g/ha
[14]; [35]
  Pre-emergence activity (GR80) SOLNI: 300 g/ha
[15]
  Post-emergence activity (GR80) ECHCG: [empty]
[16]
  Post-emergence activity (GR80) BRAPP: [empty]
[17]
  Post-emergence activity (GR80) SORVU: [empty]
[18]
  pre-emergence GR80 on monocotyledonous species: 1041 g/ha
[19]; [34]
  Pre-emergence activity (GR80) on CONAR: phyto
[19]; [35]
  Pre-emergence activity (GR80) CONAR: phyto
[20]
  Post-emergence activity (GR80) AMARE: 250 g/ha
[21]; [34]
  Pre-emergence activity (GR80) on DATST: 500 g/ha
[21]; [35]
  Pre-emergence activity (GR80) DATST: 1000 g/ha
[22]; [34]
  Pre-emergence activity (GR80) on CHEAL: 250 g/ha
[22]; [35]
  Pre-emergence activity (GR80) CHEAL: 100 g/ha
[23]
  Post-emergence activity (GR80) PANDI: [empty]
[24]; [34]
  Pre-emergence activity (GR80) on PANDI: 500 g/ha
[24]; [35]
  Pre-emergence activity (GR80) PANDI: 650 g/ha
[25]; [34]
  Pre-emergence activity (GR80) on CIRAR: 250 g/ha
[25]; [35]
  Pre-emergence activity (GR80) CIRAR: * (Where herbicidal activity was evident but 80% inhibition was not achieved at the highest rate tested (typically 1000 g/ha), an asterisk (*) is shown)
[26]
  Post-emergence activity (GR80) SETFA: [empty]
[27]; [34]
  Pre-emergence activity (GR80) on SETFA: * (Where herbicidal activity was evident but 80% inhibition was not achieved at the highest rate tested (typically 1000 g/ha), an asterisk (*) is shown)
[27]; [35]
  Pre-emergence activity (GR80) SETFA: phyto
[28]; [34]
  Pre-emergence activity (GR80) on ECHCG: phyto
[28]; [35]
  Pre-emergence activity (GR80) ECHCG: phyto
[29]
  Post-emergence activity (GR80) CONAR: 750 g/ha
[30]; [34]
  Pre-emergence activity (GR80) on PANMI: phyto
[30]; [35]
  Pre-emergence activity (GR80) PANMI: 650 g/ha
[31]; [34]
  Pre-emergence activity (GR80) on DIGSA: 250 g/ha
[31]; [35]
  Pre-emergence activity (GR80) DIGSA: 200 g/ha
[32]
  Post-emergence activity (GR80) DATST: 125 g/ha
[33]
  Post-emergence activity (GR80) DIGSA: [empty]
